ChEMBL document CHEMBL4334490, “Natural products as important tyrosine kinase inhibitors” (Eur J Med Chem, 2019)

What follows are molecules tested against Epidermal growth factor receptor (Homo sapiens, UniProt P00533) (assay: Inhibition of EGFR (unknown origin)).
Chain of Epidermal growth factor receptor (P00533 whole entry): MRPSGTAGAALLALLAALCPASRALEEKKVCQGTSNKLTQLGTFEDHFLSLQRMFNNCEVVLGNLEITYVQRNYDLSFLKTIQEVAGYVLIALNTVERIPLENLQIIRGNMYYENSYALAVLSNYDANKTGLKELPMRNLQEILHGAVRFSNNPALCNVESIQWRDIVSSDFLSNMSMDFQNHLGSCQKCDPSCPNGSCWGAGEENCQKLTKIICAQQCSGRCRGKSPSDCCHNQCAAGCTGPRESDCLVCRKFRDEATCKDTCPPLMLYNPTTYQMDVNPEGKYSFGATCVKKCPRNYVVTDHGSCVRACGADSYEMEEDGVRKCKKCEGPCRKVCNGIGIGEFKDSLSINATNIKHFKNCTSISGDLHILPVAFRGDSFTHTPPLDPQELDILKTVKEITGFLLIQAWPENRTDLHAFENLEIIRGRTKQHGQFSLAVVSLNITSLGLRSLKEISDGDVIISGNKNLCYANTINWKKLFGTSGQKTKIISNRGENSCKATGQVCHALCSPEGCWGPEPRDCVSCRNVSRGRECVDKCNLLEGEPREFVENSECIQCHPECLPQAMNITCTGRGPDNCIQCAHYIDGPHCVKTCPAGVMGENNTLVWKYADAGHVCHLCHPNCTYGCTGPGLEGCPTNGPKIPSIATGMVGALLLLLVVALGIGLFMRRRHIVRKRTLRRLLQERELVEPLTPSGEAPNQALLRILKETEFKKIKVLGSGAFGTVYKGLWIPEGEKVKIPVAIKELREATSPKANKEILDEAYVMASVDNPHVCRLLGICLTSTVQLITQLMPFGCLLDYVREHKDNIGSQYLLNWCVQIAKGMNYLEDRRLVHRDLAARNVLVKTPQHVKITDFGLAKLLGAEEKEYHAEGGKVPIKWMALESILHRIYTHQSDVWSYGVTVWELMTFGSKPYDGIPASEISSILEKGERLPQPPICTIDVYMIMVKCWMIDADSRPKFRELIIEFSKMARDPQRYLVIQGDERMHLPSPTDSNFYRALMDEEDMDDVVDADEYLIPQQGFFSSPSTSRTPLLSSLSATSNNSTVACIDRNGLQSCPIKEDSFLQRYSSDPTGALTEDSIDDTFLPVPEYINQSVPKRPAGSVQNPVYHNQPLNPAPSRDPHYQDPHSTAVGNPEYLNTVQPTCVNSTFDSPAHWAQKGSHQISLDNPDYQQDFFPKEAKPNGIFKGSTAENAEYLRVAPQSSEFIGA

| IC50 [µM] | SMILES |
| --- | --- |
| 18.5 | N=C1NC(=O)/C(=C2/CCNC(=O)c3[nH]cc(Br)c32)N1 |
| 10.6 | COc1ccc(Cc2nc(-c3cc(Br)c(OCCCN(C)C)c(Br)c3)c[nH]c2=O)cc1Br [Ma'edamine A] |
| 37.9 | N=C1N=C(NCCS(=O)(=O)O)/C(=C/C(O)CNC(=O)c2cc(Br)c(Br)[nH]2)N1 (centres undefined) [TAUROACIDIN A] |
| 21.1 | N=C1NC(=O)/C(=C2/CCNC(=O)c3[nH]c(Br)c(Br)c32)N1 |
